Measurements as given in patent US20210386823A1, “THERAPEUTIC AGENT FOR CARTILAGE DISORDER” (OSAKA UNIVERSITY, priority 2018, published 2021).

Test system: cartilage defect model mice (knee joint articular cartilage defect)
Experiment: Efficacy of HMGB1 fragment peptide on articular cartilage defect in cartilage defect model mouse
Assay type: in vivo, C57BL/6J mice
Experimental: C57BL/6J mice (6-7 weeks old, male, wild type) were purchased from CLEA Japan, Inc., and then acclimated to animal facilities until they were 8 weeks old (weighing approximately 25 g at 8 weeks old). While the mice were under 1.5-2.0% (v/v) isoflurane inhalation anesthesia, shaving was performed on the lower extremity of the side to create a cartilage defect, and a longitudinal skin incision of approximately 1 cm was applied with scissors to the middle of the knee joint. An articular dissection of approximately 1 cm was performed under the microscope with a sharp blade (#11) in the parapatellar medial approach to dislocate the patella laterally. The femoral pulley was confirmed, and a 0.5×0.5×0.5 mm cartilage defect was created at the center of the pulley using a 0.5 mm diameter hand-turned drill (manufactured by MEISINGER USA, L.L.C.). Inside of the joint was washed with saline, then the articular capsule was continuously sutured with 8-0 vicryl to prevent patellar dislocation, and the skin was sutured with 5-0 nylon thread.
Cartilage defect model mice created as described above were divided into an HMGB1 peptide (1-44) administration group (n=16) and a control group (n=16). To the HMGB1 peptide (1-44) administration group, a solution of HMGB1 peptide (1-44) adjusted to a concentration of 1 μg/μL with saline as solvent was administered from the tail vein in an amount of 100 μL/mouse (4 mg/kg as the dose of peptide) immediately after the cartilage defect was created, and thereafter, the same dose was administered twice a week until 4 weeks after the cartilage defect was created (hereinafter also referred to simply as “post-operative”). To the control group, saline was administered from the tail vein in an amount of 100 μL to each mouse on the same schedule as in the HMGB1 peptide (1-44) administration group.
In both the HMGB1 peptide (1-44) administration group and the control group, four mice were sacrificed at each time point of 2, 4, 8 and 12 weeks post-operative, and the cartilage defect creation sites of knee joints were removed for microscopic observation and tissue staining. For microscopic observation, the status of cartilage tissue was evaluated by scoring the gross appearance according to the criteria shown in Table 1 below using the Wayne scoring system. In addition, sections of cartilage tissue were created for histological evaluation and subjected to safranin O staining, and the status of cartilage tissue was evaluated by calculating the Wakitani score from the tissue images according to the criteria shown in Table 2 below.

“HMGB1 peptide (1-44): Peptide consisting of amino acid residues 1-44 (SEQ ID NO: 1) of human-derived HMGB1 protein, chemically synthesized by a solid-phase method (MGKGDPKKPRGKMSSYAFFVQTCREEHKKKHPDASVNFSEFSKK)” was tested, and the “Microscopic observation (gross appearance) of cartilage defect sites of knee joints” value (4 mg/kg tail vein, twice a week until 4 weeks post-operative, observed at 2, 4, 8 and 12 weeks post-operative, vs control group (saline)) was “recovered to a state closer to normal than those of the control group”, the “Safranin O staining of cartilage tissue sections (regeneration of defective cartilage tissue)” value (4 mg/kg tail vein, twice a week until 4 weeks, 2, 4, 8 and 12 weeks post-operative, FIGS. 3 and 5) was “defective cartilage tissue was fully regenerated” and the “Wayne score (gross appearance)” value (4 mg/kg tail vein, twice a week until 4 weeks, 2, 4, 8 and 12 weeks post-operative, vs control group, FIG. 2) was “higher than the control group”. For the same substance, the “Wakitani score (histological evaluation)” value (4 mg/kg tail vein, twice a week until 4 weeks, 2, 4, 8 and 12 weeks post-operative, vs control group, FIGS. 4 and 6) was “significantly lower compared to that of the control group” and the “Safranin O staining response of knee joint cartilage tissues compared with normal mice” value (12 weeks post-operative, compared with cartilage of normal mice (FIG. 8, left)) was “strong positive response similar to cartilage tissues of knee joints of normal mice”.
